Tests used:
Assay in all cases: KINOMEscan competition binding
Details in all cases: compound 10.0 µM
BLK (human) = BLK (human) (UniProt P51451)
BRSK1 (human) = BRSK1 (human) (UniProt Q8TDC3)
BTK (human) = BTK (human) (UniProt Q06187)
CAMK2B (human) = CAMK2B (human) (UniProt Q13554)
CDC42BPA (human) = CDC42BPA (human) (UniProt Q5VT25)
CDK14 (human) = CDK14 (human) (UniProt O94921)
CSNK1A1 (human) = CSNK1A1 (human) (UniProt P48729)
CSNK1A1L (human) = CSNK1A1L (human) (UniProt Q8N752)
CaMK1 (human) = CaMK1 (human) (UniProt Q14012)
DAPK3 (human) = DAPK3 (human) (UniProt O43293)
Chain of DAPK3 (human) (O43293 whole entry, looked up): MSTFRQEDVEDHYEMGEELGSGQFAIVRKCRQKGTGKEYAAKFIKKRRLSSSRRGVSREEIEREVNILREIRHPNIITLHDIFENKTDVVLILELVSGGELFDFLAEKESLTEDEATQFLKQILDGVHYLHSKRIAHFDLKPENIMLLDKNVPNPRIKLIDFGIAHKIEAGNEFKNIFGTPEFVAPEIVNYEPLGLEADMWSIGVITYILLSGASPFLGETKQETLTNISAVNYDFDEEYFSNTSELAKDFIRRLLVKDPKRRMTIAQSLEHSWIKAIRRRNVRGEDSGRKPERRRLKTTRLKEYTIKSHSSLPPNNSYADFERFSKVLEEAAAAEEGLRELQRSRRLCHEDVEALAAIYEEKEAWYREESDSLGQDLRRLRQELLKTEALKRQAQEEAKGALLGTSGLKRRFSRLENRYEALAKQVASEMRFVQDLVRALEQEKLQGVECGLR

[1] = tested on: EIF2AK4 KD2 (human), Q9P2K8 [S808G]
EPHA8 (human) = EPHA8 (human) (UniProt P29322)
FGFR3 (human) = FGFR3 (human) (UniProt P22607)
GAK (human) = GAK (human) (UniProt O14976)
GRK7 (human) = GRK7 (human) (UniProt Q8WTQ7)
HCK (human) = HCK (human) (UniProt P08631)
LIMK1 (human) = LIMK1 (human) (UniProt P53667)
LIMK2 (human) = LIMK2 (human) (UniProt P53671)
Chain of LIMK2 (human) (P53671 whole entry, looked up): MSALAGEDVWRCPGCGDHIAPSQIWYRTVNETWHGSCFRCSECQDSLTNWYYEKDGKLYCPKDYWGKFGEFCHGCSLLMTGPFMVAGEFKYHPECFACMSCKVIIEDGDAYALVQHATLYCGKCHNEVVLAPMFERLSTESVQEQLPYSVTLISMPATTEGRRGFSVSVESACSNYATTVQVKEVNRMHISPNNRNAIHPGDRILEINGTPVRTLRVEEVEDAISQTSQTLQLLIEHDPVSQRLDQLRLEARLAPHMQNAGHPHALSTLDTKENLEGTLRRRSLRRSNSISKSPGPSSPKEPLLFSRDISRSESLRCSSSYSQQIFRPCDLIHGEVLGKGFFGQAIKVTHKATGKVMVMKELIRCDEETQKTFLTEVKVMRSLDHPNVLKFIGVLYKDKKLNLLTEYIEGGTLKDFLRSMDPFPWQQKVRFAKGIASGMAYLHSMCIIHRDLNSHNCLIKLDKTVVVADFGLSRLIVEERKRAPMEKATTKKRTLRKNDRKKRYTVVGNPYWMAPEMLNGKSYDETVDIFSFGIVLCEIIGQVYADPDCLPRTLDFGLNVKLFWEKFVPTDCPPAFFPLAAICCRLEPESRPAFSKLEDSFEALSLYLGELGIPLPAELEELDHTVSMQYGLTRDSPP

MAP2K7 (human) = MAP2K7 (human) (UniProt O14733)
MAP3K10 (human) = MAP3K10 (human) (UniProt Q02779)
MAP3K4 (human) = MAP3K4 (human) (UniProt Q9Y6R4)
MAP3K6 (human) = MAP3K6 (human) (UniProt O95382)
MAP4K1 (human) = MAP4K1 (human) (UniProt Q92918)
Chain of MAP4K1 (human) (Q92918 whole entry, looked up): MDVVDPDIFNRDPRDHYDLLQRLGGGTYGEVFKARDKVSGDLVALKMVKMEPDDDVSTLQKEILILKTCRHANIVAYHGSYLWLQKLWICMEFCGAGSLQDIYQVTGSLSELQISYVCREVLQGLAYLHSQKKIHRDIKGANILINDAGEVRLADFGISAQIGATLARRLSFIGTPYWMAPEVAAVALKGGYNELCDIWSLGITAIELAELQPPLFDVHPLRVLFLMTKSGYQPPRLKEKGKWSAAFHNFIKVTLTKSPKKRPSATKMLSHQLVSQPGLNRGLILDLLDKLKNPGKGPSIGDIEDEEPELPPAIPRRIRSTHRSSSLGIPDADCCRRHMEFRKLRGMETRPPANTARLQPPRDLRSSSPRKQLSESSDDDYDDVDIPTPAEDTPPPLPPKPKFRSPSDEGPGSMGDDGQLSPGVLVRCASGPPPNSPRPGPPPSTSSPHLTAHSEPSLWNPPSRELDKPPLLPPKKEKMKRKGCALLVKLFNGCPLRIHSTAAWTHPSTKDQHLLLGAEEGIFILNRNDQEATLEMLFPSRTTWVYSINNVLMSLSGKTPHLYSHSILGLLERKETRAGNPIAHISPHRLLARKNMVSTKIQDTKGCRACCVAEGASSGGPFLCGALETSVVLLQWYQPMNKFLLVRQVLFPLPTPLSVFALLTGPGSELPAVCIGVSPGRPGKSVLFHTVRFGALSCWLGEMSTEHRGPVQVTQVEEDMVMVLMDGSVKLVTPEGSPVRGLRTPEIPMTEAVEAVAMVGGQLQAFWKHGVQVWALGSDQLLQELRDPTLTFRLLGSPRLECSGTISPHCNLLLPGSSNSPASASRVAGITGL

MAP4K3 (human) = MAP4K3 (human) (UniProt Q8IVH8)
MAPK14 (human) = MAPK14 (human) (UniProt Q16539)
Chain of MAPK14 (human) (Q16539 whole entry, looked up): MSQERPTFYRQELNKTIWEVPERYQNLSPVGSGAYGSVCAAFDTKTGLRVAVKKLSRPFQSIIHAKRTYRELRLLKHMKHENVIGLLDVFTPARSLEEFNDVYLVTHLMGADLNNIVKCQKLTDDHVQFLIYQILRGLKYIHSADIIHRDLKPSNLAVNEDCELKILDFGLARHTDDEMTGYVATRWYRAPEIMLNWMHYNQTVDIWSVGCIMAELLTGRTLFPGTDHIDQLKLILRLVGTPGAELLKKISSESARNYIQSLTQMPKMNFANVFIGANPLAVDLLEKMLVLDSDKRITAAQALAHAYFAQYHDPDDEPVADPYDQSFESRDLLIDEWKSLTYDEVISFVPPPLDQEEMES

MAPK3 (human) = MAPK3 (human) (UniProt P27361)
Chain of MAPK3 (human) (P27361 whole entry, looked up): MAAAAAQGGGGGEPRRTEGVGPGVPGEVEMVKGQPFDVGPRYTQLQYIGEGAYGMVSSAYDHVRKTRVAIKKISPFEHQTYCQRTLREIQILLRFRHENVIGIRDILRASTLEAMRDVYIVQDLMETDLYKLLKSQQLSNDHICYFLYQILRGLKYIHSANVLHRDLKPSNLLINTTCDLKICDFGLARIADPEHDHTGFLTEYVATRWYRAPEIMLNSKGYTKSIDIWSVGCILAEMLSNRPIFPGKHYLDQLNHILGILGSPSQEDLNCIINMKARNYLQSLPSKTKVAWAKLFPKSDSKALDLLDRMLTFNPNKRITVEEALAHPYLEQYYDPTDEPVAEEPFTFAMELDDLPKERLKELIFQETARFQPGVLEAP

MARK3 (human) = MARK3 (human) (UniProt P27448)
Chain of MARK3 (human) (P27448 whole entry, looked up): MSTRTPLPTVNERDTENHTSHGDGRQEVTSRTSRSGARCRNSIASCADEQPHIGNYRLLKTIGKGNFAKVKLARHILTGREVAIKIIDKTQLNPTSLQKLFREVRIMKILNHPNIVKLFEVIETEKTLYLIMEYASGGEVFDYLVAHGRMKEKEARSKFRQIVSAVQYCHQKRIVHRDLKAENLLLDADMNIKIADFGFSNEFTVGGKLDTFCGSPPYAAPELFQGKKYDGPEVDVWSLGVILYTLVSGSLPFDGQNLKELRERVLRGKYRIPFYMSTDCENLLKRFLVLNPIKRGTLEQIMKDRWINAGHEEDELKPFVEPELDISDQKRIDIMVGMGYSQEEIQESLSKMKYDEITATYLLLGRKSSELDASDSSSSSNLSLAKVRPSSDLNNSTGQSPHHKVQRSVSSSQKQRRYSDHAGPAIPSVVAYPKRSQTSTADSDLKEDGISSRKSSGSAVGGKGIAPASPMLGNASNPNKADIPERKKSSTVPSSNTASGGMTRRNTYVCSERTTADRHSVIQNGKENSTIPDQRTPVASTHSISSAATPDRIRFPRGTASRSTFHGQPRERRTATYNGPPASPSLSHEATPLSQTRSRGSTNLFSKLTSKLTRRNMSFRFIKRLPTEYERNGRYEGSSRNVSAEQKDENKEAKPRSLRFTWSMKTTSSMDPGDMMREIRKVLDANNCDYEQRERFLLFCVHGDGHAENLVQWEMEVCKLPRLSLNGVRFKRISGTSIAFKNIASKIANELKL

MAST1 (human) = MAST1 (human) (UniProt Q9Y2H9)
NTRK3 (human) = NTRK3 (human) (UniProt Q16288)
PAK3 (human) = PAK3 (human) (UniProt O75914)
PHKG2 (human) = PHKG2 (human) (UniProt P15735)
PIM2 (human) = PIM2 (human) (UniProt Q9P1W9)
Chain of PIM2 (human) (Q9P1W9 whole entry, looked up): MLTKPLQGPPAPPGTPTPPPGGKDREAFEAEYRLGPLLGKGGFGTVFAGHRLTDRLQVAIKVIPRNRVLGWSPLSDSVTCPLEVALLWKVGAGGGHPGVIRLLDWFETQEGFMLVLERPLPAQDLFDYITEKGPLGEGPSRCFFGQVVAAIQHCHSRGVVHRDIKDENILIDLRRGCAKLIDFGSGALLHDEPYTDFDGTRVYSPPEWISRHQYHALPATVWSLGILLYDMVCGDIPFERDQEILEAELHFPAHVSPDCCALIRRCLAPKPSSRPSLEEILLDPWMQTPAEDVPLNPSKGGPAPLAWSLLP

PIP4K2C (human) = PIP4K2C (human) (UniProt Q8TBX8)
RPS6KA4 KD1 (human) = RPS6KA4 KD1 (human) (UniProt O75676)
SNRK (human) = SNRK (human) (UniProt Q9NRH2)
SRPK1 (human) = SRPK1 (human) (UniProt Q96SB4)
SRPK2 (human) = SRPK2 (human) (UniProt P78362)
Chain of SRPK2 (human) (P78362 whole entry, looked up): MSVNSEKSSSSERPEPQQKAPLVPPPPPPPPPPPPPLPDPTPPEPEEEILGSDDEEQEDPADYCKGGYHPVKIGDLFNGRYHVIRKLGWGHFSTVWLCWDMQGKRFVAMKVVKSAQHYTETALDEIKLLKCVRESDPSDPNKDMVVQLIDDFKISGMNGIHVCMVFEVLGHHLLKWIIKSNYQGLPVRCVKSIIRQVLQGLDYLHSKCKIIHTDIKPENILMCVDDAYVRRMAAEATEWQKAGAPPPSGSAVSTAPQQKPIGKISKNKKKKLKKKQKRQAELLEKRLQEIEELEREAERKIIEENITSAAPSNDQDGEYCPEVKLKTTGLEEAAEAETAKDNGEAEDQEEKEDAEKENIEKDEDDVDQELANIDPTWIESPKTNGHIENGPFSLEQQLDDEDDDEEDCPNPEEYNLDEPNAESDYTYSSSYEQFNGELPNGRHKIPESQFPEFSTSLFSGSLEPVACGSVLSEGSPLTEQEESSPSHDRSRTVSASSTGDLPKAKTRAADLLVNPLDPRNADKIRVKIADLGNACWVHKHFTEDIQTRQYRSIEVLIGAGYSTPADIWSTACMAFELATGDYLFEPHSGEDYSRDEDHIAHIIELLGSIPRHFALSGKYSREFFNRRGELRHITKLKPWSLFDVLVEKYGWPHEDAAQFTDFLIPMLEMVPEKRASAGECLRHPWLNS

TNK2 (human) = TNK2 (human) (UniProt Q07912)
[2] = target: TYK2 JH1 catalytic (human) (UniProt P29597)
YES1 (human) = YES1 (human) (UniProt P07947)

Chain of CSNK1A1L (human) (Q8N752 whole entry, looked up): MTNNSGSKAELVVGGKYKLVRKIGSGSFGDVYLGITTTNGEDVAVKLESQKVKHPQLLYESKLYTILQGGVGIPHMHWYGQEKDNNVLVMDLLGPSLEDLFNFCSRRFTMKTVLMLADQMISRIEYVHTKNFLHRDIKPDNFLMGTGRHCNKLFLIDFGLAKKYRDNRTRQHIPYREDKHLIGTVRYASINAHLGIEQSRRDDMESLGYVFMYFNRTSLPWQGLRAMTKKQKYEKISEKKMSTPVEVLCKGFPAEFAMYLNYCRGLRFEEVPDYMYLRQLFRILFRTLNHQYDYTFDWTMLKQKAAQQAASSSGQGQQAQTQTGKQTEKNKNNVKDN

| Compound | kinase still bound, per cent of control (BLK (human)) | kinase still bound, per cent of control (BRSK1 (human)) | kinase still bound, per cent of control (BTK (human)) | kinase still bound, per cent of control (CAMK2B (human)) | kinase still bound, per cent of control (CDC42BPA (human)) | kinase still bound, per cent of control (CDK14 (human)) | kinase still bound, per cent of control (CSNK1A1 (human)) | kinase still bound, per cent of control (CSNK1A1L (human)) | kinase still bound, per cent of control (CaMK1 (human)) | kinase still bound, per cent of control (DAPK3 (human)) | kinase still bound, per cent of control [1] | kinase still bound, per cent of control (EPHA8 (human)) | kinase still bound, per cent of control (FGFR3 (human)) | kinase still bound, per cent of control (GAK (human)) | kinase still bound, per cent of control (GRK7 (human)) | kinase still bound, per cent of control (HCK (human)) | kinase still bound, per cent of control (LIMK1 (human)) | kinase still bound, per cent of control (LIMK2 (human)) | kinase still bound, per cent of control (MAP2K7 (human)) | kinase still bound, per cent of control (MAP3K10 (human)) | further results |
| --- | --- | --- | --- | --- | --- | --- | --- | --- | --- | --- | --- | --- | --- | --- | --- | --- | --- | --- | --- | --- | --- |
| Nc1ccc(-c2ccc3ncc4ccc(=O)n(-c5cccc(C(F)(F)F)c5)c4c3c2)cn1 | 98% | 88% | 100% | 100% | 99% | 97% | 94% | 89% | 82% | 81% | 100% | 99% | 75% | 56% | 60% | 100% | 100% | 89% | 100% | 100% | kinase still bound, per cent of control (MAP3K4 (human)): 100%; kinase still bound, per cent of control (MAP3K6 (human)): 100%; kinase still bound, per cent of control (MAP4K1 (human)): 100%; kinase still bound, per cent of control (MAP4K3 (human)): 63%; kinase still bound, per cent of control (MAPK14 (human)): 100%; kinase still bound, per cent of control (MAPK3 (human)): 100%; kinase still bound, per cent of control (MARK3 (human)): 100%; kinase still bound, per cent of control (MAST1 (human)): 100%; kinase still bound, per cent of control (NTRK3 (human)): 100%; kinase still bound, per cent of control (PAK3 (human)): 100%; kinase still bound, per cent of control (PHKG2 (human)): 100%; kinase still bound, per cent of control (PIM2 (human)): 100%; kinase still bound, per cent of control (PIP4K2C (human)): 21%; kinase still bound, per cent of control (RPS6KA4 KD1 (human)): 82%; kinase still bound, per cent of control (SNRK (human)): 100%; kinase still bound, per cent of control (SRPK1 (human)): 100%; kinase still bound, per cent of control (SRPK2 (human)): 100%; kinase still bound, per cent of control (TNK2 (human)): 100%; kinase still bound, per cent of control [2]: 85%; kinase still bound, per cent of control (YES1 (human)): 100% |
| O=C1Nc2ccc(I)cc2/C1=C/c1cc(Br)c(O)c(Br)c1 | 41% | 85% | 99% | 17% | 100% | 95% | 81% | 100% | 70% | 2.6% | 78% | 100% | 84% | 1.6% | 73% | 81% | 100% | 77% | 98% | 93% | kinase still bound, per cent of control (MAP3K4 (human)): 95%; kinase still bound, per cent of control (MAP3K6 (human)): 100%; kinase still bound, per cent of control (MAP4K1 (human)): 71%; kinase still bound, per cent of control (MAP4K3 (human)): 100%; kinase still bound, per cent of control (MAPK14 (human)): 36%; kinase still bound, per cent of control (MAPK3 (human)): 100%; kinase still bound, per cent of control (MARK3 (human)): 68%; kinase still bound, per cent of control (MAST1 (human)): 100%; kinase still bound, per cent of control (NTRK3 (human)): 35%; kinase still bound, per cent of control (PAK3 (human)): 100%; kinase still bound, per cent of control (PHKG2 (human)): 92%; kinase still bound, per cent of control (PIM2 (human)): 2.1%; kinase still bound, per cent of control (PIP4K2C (human)): 100%; kinase still bound, per cent of control (RPS6KA4 KD1 (human)): 87%; kinase still bound, per cent of control (SNRK (human)): 99%; kinase still bound, per cent of control (SRPK1 (human)): 40%; kinase still bound, per cent of control (SRPK2 (human)): 87%; kinase still bound, per cent of control (TNK2 (human)): 74%; kinase still bound, per cent of control [2]: 8.2%; kinase still bound, per cent of control (YES1 (human)): 90% |

From the kinase profiling compilation of Christmann-Franck et al. (2016)
